# Legend:
# [1] = test system: Klebsiella pneumoniae (CRE, ATCC BAA-1705); assay: MIC against CRE; assay type: cell-based; details: Klebsiella pneumoniae, ATCCBAA1705
# Protocol: TABLE 27 details the individual MIC values of compounds 1, 7, 8, 9, 10, 11, PMB, PME, and light against CRE.
# The MICs of PME and compounds 8-11 were determined against Klebsiella pneumoniae (CRE, ATCC BAA-1705). […] After the incubation with PME, the compounds were added at a concentration of 20 μM, and the samples were further incubated. At specific time points, the samples were taken and diluted ten-fold in media. Ten microliters of each dilution was then drip-streaked onto an agar plate and incubated overnight at 37° C. Colony counts were then performed and the CFU/mL were calculated.
# [2] = test system: P. aeruginosa; assay: Resensitization to antibiotics (log reduction, TABLE 29); assay type: cell-based; details: compound 20 μM; PME (0.1 μg/mL)
# [3] = test system: HeLa cells; assay: Toxicity (IC50) on HeLa cells; assay type: cell-based, human; details: for IC50: Homo sapiens, cancerous cervical epithelium HeLa cells
# Protocol: (§1) The toxicities of the compounds of the invention were determined for human cancerous cervical epithelium HeLa and normal lung fibroblast WI38 cells. The toxicities of EPIs INF-55 and INF-55Cl were quantified as controls. […] TABLE 2 compares the toxicity of compounds 7-11 on HeLa cells and normal WI38 cells.
# [4] = test system: S. aureus (ATCC 29213); assay: MIC against drug sensitive S. aureus; assay type: cell-based; details: Staphylococcus aureus, ATCC29213; ATCC 29213; read-out: S. aureus MIC
# [5] = test system: WI38 cells; assay: Toxicity (IC50) on WI38 cells; assay type: cell-based; details: Homo sapiens, WI-38; normal lung fibroblast WI38 cells
# Protocol: as §1
# [6] = test system: MRSA (ATCC BAA-44); assay: Synergy with oxacillin and norfloxacin and other antibiotics (colony counts); assay type: cell-based, S. aureus; details: for Orders of Magnitude with Norfloxacin / Orders of Magnitude with Oxacillin: increase in ability to kill MRSA versus drug or compound alone
# Protocol: The synergy of compounds 1 and 7-11 with oxacillin and norfloxacin was tested against MRSA (ATCC BAA-44). An overnight culture of MRSA was first diluted to about 5×10^5 CFU/mL in TSB. Then, 1 mL of the diluted broth suspension was added to a borosilicate glass culture tube. An appropriate volume of a compound or an antibiotic drug stock was added to the broth suspension and mixed using a vortex mixer. Then an appropriate volume of an antibiotic was added to test synergy with compounds 7-11. The samples were subsequently mixed using a vortex mixer, and the samples were incubated for 18 hours at 37° C. on a rotary shaking incubator. After 18 hours, the test cultures were diluted ten-fold, 10 μL of each dilution was drip-streaked onto a TSA plate, and the samples were incubated for 18 hours at 37° C. Colony counts were then performed and the CFU/mL values were calculated.
# TABLE 21 details the MIC values identified in the MRSA assay of compounds 1, 7, 8, 9, 10, 11, various antibiotics, and light.
# [7] = test system: MRSA; assay: Resensitization to antibiotics (log reduction, TABLE 29); assay type: cell-based, S. aureus; details: compound 8 μM; Oxacillin ([…])
# Protocol: In a 96-well microtiter plate, two-fold dilutions were made of each drug (starting with 100 μM) in 100 μL of a cell suspension in TSB. The resulting samples were incubated overnight at 37° C. on a rotary shaking incubator at 100 rpm. The samples were then visually inspected for turbidity. A 20% well volume of MTT reagent (5 mg/mL) was subsequently added, and the samples were incubated for about 20 minutes.
# [8] = test system: drug-resistant bacteria; assay: Summary of synergistic activities with antibiotic families (TABLE 45); assay type: cell-based; details: for Synergy with Oxacillin (β-lactama): *indicated ampicillin, dicloxicillin and Penicillin G
# Description: TABLE 45 summarizes the synergistic activities of the seven classes of clinically used antibiotics and compounds of the invention against a variety of different drug-resistant bacteria.
# [9] = test system: S. aureus (ATCC 29213); assay: microbe, parasite or virus in culture; assay type: cell-based; details: for MIC: Staphylococcus aureus, ATCC29213, read-out: Final MIC Apr. 16, 2015
# Protocol: Each mixture was incubated at 37° C. on a rotary shaking incubator for about 16 hours. MTT was then added to assess the viability of the cells (at 10% well volume). […] The cells were then streaked onto a TSA plate and incubated overnight at 37° C. These steps were repeated to reach a total of 30 exposures.
# [10] = test system: Klebsiella pneumoniae (CRE, ATCC BAA-1705); assay: Cell killing of CRE with compounds in presence or absence of PMB (CFU/mL); assay type: cell-based; details: for PMB + Comp: PMB @ 0.2 μg/mL + Comp @ 20 µM; for Comp @ 20 µM: compound alone
# Protocol: Klebsiella pneumoniae (CRE, ATCC BAA-1705) was grown in TSB overnight at 37° C. and diluted to about 5×10^5 CFU/mL using a McFarland Latex Turbidity standard (0.5). One mL of the cell suspension was transferred to a glass culture test tube. PMB was added to the cell suspension resulting in a final concentration of 200 μg/mL of PMB. The cell suspension was incubated at 37° C. on a rotary shaking incubator at 150 rpm for 4 hours. Compounds 1, 7, 8, 9, 10, and 11 were added to the cell suspension, resulting in a concentration of 20 μM for each of the compounds. The cell suspensions containing the compounds were incubated at 37° C. on a rotary shaking incubator at 150 rpm for 4 hours. Each sample was diluted tenfold to a 10^−5 dilution. Ten 10 microliters of each dilution from each sample was dripped onto a TSA plate and allowed to streak down the plate. The agar plates were incubated at 37° C. for 18-24 hours. Colony counts were performed and CFU/mL values were calculated.
# The MICs of PMB and compounds 7-11 were determined against Klebsiella pneumoniae (CRE, ATCC BAA-1705). […] After the incubation with PMB, each of the compounds was added at a concentration of 20 μM, and the samples were incubated for an additional 18 hours. A sample was taken and diluted ten-fold in media. Ten microliters of each dilution was then drip-streaked onto an agar plate and incubated overnight at 37° C. Colony counts were then performed and the concentrations of cells (CFU/mL) were calculated.
# [11] = (½) MIC compound + (¼) MIC Norfloxacin
# [12] = (½) MIC compound + (⅓) MIC Oxacillin
# [13] = (⅛) MIC compound + (1/7) MIC Norfloxacin
# [14] = (⅛) MIC compound + (¼) MIC Oxacillin
# [15] = compared to compound alone, FIGS. 34, 39, 41
Compound,MIC [1] [µM],Log Reduction [2],IC50 [3] [µM],MIC [4] [µM],IC50 [5] [µM],Orders of Magnitude with Norfloxacin [6],Orders of Magnitude with Oxacillin [6],Synergy with Polymyxin B (Polypeptides) ([8]; A. baumannii ATCC 15151),Synergy with Polymyxin E (Polypeptides) ([8]; A. baumannii ATCC 15151),Synergy with Polymyxin B (Polypeptides) ([8]; CRE ATCC 1705),Synergy with Polymyxin E (Polypeptides) ([8]; CRE ATCC 1705),Synergy with Polymyxin B (Polypeptides) ([8]; CRE ATCC 2340),Synergy with Polymyxin E (Polypeptides) ([8]; CRE ATCC 2340),Synergy with Polymyxin B (Polypeptides) ([8]; CRE ATCC 2341),Synergy with Polymyxin E (Polypeptides) ([8]; CRE ATCC 2341),Synergy with Polymyxin B (Polypeptides) ([8]; CRE ATCC 2342),Synergy with Polymyxin E (Polypeptides) ([8]; CRE ATCC 2342),Synergy with Norfioxacin (Fluoroquinolones) ([8]; MRSA ATCC BAA-44),Synergy with Oxacillin (β-lactama) ([8]; MRSA ATCC BAA-44),Synergy with Polymyxin B (Polypeptides) ([8]; P. aeruginosa ATCC 27853),other results
Clc1ccc(/N=N/c2c[nH]c3ccccc23)cc1 [Compound 9],> 100,2,34.4,16,61.9,>2,>2,Synergy,Synergy,Synergy,Synergy,Synergy,Synergy,Synergy,Synergy,Synergy,Synergy,Synergy,Synergy*,Synergy,"toxicity to HeLa versus normal WI38 cells ([3]; comparison of TABLE 2 values): killed cancerous HeLa cells at concentrations that were not toxic to normal WI38 cells; % Kill [6, 11]: 99%; Surviving MRSA [6, 11]: 1.00 × 10^−2; % Kill [6, 12]: 99%; Surviving MRSA [6, 12]: 1.00 × 10^−2; MICs greater than cells treated with compound alone, with norfloxacin ([6]; FIGS. 35-38): two-fold; MICs greater than cells treated with compound alone, with oxacillin ([6]; FIGS. 35-38): two-fold; Log Reduction [7]: 2-3; Synergy with Polymyxin E (Polypeptides) ([8]; P. aeruginosa ATCC 27853): Synergy; Synergy with Norfioxacin (Fluoroquinolones) ([8]; VRE ATCC 51299): Synergy; Synergy with Tetracycline (Tetracyclines) ([8]; VRE ATCC 51299): Synergy; Synergy with Vancomycin (Glycopeptides) ([8]; VRE ATCC 51299): Synergy; Resistance Evolved [9]: No; MIC [9]: 8 µM; PMB + Comp [10]: None Detected; Comp @ 20 µM [10]: 6.4 × 10^8 CFU/mL"
Clc1ccc(Oc2c(-c3ccc(Cl)cc3)[nH]c3ccc(Cl)cc23)cc1 [Compound 11],> 100,2,25.9,32 to 64,9.62,5,5,Synergy,Synergy,Synergy,Synergy,Synergy,Synergy,Synergy,Synergy,Synergy,Synergy,Synergy,Synergy*,Synergy,"% Kill [6, 13]: 99.99%; Surviving MRSA [6, 13]: 1.00 × 10^−5; % Kill [6, 14]: 99.99%; Surviving MRSA [6, 14]: 1.00 × 10^−5; Synergy with Norfloxacin ([6]; TABLE 6): 8-log reduction; Synergy with Oxacillin ([6]; TABLE 6): 5-log reduction; log reduction in the number of surviving cells (CFU/mL), co-treatment with norfloxacin [6, 15]: ~8 log; log reduction in the number of surviving cells (CFU/mL), co-treatment with oxacillin [6, 15]: ~5 log; killing of MRSA in conjunction with oxacillin ([6]; compound 11 at 1 μM, FIG. 40): more effective at killing MRSA when used in conjunction with oxacillin; Synergy with Polymyxin E (Polypeptides) ([8]; P. aeruginosa ATCC 27853): Synergy; Synergy with Norfioxacin (Fluoroquinolones) ([8]; VRE ATCC 51299): Synergy; Synergy with Tetracycline (Tetracyclines) ([8]; VRE ATCC 51299): Synergy; Synergy with Vancomycin (Glycopeptides) ([8]; VRE ATCC 51299): Synergy; Resistance Evolved [9]: Yes; MIC [9]: > 256 µM; PMB + Comp [10]: None Detected; Comp @ 20 µM [10]: 7.8 × 10^8 CFU/mL"
